Tested on: mammary Tumoral cells MCF-7
Assay: Anti-proliferative activity against the increase of mammary tumoral cells MCF-7 (ADN by DABA fluorimetry)
Assay type: cell-based
Conditions: Homo sapiens, MCF7, 144 h; MCF-7 cells, SVF medium, 6 days, ADN content; read-out: CI50 in nM (concentration which inhibits by 50% the increase in the MCF 7 cells)
Method: The cell culture line MCF-7 was maintained in culture in SVF (1) medium at 37° C. in a humid atmosphere containing 5% CO2. The cells at subconfluence were collected by trypsination (0.05% trypsine, 0.02% EDTA) then rinsed by gentle centrifiguation. A sample of the cells in suspension was counted by the Malassez cell. To study the increase, the cells resuspended in SVF medium were innoculated at a rate of 30,000 cells per well in a multiwell plate (24 wells per 2.5 cm^2) 24 hours after the innoculation (Day 0), the test compound was added to the medium in an ethanolic solution (final ethanol concentration is 0.1%) a concentration of 10^-6 M. The control wells received the same concentration of ethanol. The mediums were totally renewed at 48 hours. At the end of the experiment (Day 6), the medium was aspirated and the cells were immediately fixed by 150 μl of methanol after a dose of ADN. The anti-proliferative activity of the products was determined by the capacity to inhibit ADN increase.
ADN is dosed by a fluorimetric method using DABA (3,5-diamino benzoic acid). 150 μl of DABA was added to each well and the plates were incubated for 45 minutes at 56° C. and then 1.5 ml of 1N hydrochloric acid was added. The fluoresence was measured with a fluorimeter (excitement length 400 nM-length of emission wave 500 nM). The amount of ADN per well was evaluated with respect to a standard scale obtained by treating under the same conditions an ADN standard of the calf thymus. The concentration in nM which inhibit by 50% the increase in the MCF 7 cells or CI50 was determined in the same manner with the results of the following Table.
The medium for culture of calf fetal serum (SVF) was prepared as follows: MEM medium (minimal essential medium) to which was added non-essential amino acids (GIBCO), peni-strepto (penicillin 100 U/ml, streptomycine 0.1 mg/ml), 0.1% fungizone, 50 ng/ml of insulin and a 10% final concentration of calf fetal serum free of endrogenic steroids.

IC50 [nM] | SMILES
50 | CN(C)c1ccc([C@H]2C[C@@]3(C)[C@@H](CC[C@@]3(O)c3ccc(O)cc3)[C@@H]3CCC4=CC(=O)CCC4=C32)cc1 [6 Product A]
50 | CN(C)c1ccc([C@H]2C[C@]3(C)C(c4ccc(O)cc4)=CC[C@H]3[C@@H]3CCC4=CC(=O)CCC4=C32)cc1 [6 Product B]
800 | CN(C)c1ccc(C2=CC[C@H]3[C@@H]4CCC5=CC(=O)CCC5=C4[C@@H](c4ccc(N(C)C)cc4)C[C@]23C)cc1 [Example 3, 11β,17-bis-(4-dimethylamino-phenyl)-Δ^4,9,16-estratriene-3-one]
1000 | COc1ccc(C2=CC[C@H]3[C@@H]4CCC5=CC(=O)CCC5=C4[C@@H](c4ccc(N(C)C)cc4)C[C@]23C)cc1 [Example 5, 11β-(4-dimethylamino-phenyl)-17-(4-methoxy-phenyl)-Δ^4,9,16-estratriene-3-one]
